# US8431540B2, “Modified lysine-mimetic compounds” (Zealand Pharma A/S, priority 2005, dated 2013)
# Legend:
# [1] = system: C6 glioma cells overexpressing connexin43; assay: In vitro cell swelling and dye uptake model (simulated ischemia); format: cell-based
# Procedure: In this experiment, the effect of Compound 2 on calcein dye-uptake induced by metabolic inhibition in cultured C6 glioma cells overexpressing connexin43 was studied. Cells were incubated under control conditions and during simulated ischemia (SI) for 40 minutes in the presence of calcein (200 μM). Following incubation the cells were subjected to epifluorescence microscopy to determine the uptake of calcein. Incubation of C6 cells in SI medium increased dye-uptake to 5-fold above control values.
# Male CD-1 mice = assay: Calcium-induced arrhythmia model (time to AV block after CaCl2 infusion); format: in vivo; conditions: compound IV 3 min before CaCl2 infusion (100 mg/kg/min), saline control 62-78
# Procedure: Peptides suitable for administration to cardiac cells can be identified in an in vivo model of calcium-induced arrhythmias according to the model of Lynch et al. (1981) J Cardiovasc. Pharmacol. 3: 49-60. Male CD-1 mice are anaesthetized with Ketamine (75 mg/kg) and medetomidine (1 mg/kg) IP. An i.v. cannula is inserted into the tail vein. A lead II ECG signal is recorded continuously by positioning stainless steel ECG electrodes on the right forelimb and […]. The ground electrode is placed on the right hind limb. The signal is amplified and filtered using Gould physiograph components and po-ne-mah data acquisition software. After a 90 sec equilibration period test compound is injected into the tail vein (over 30 seconds). Mice pre-treated with vehicle are tested as control animals. The injection volume is 100 μl/30 g mice in all experiments. Infusion of CaCl2 (30 mg/mL, 0.1 mL/min/30 g mice, 100 mg/kg/min) is started 3 min after IV administration of drug or vehicle (0.9% saline). The time lag to onset of cardiac conduction block is determined as the time from the start of CaCl2 infusion until the first arrhythmic event occurred. The first conduction block is defined as the first RR-interval, larger than or equal to 3 times one RR-interval from the pre-treatment period. The first arrhythmic event occurring is either a second degree AV-block (intermittent failure of the AV conduction characterized by a P-wave without the concomitant QRS complex) or a second degree SA block (prolonged RR-interval and a QRS-complex without a preceding P-wave). Responses are expressed relative to the time until 2nd degree AV-block occurred in vehicle treated mice.
# The anti-arrhythmic effect of compounds according to the present teachings was tested in a model of calcium-induced arrhythmias according to the model of Lynch et al., J. Cardiovasc. Pharmacol. (1981), 3: 49-60. Male CD-1 mice were anaesthetized with Ketamine (75 mg/kg) and medetomidine (1 mg/kg) IP. An i.v. cannula was inserted into the tail vein. A lead II ECG signal was recorded continuously by positioning stainless steel ECG electrodes on the right forelimb and […]. The ground electrode was placed on the right hind limb. The signal was amplified and filtered using Gould physiograph components and po-ne-mah data acquisition software. After a 90 sec equilibration period test compound was injected into the tail vein (over 30 seconds). Mice pre-treated with vehicle (0.9% saline) were tested as control animals. The injection volume was 100 μl/30 g mice in all experiments. Infusion of CaCl2 (30 mg/mL, 0.1 mL/min/30 g mice, 100 mg/kg/min) was started 3 min after IV administration of drug or vehicle. The time lag to onset of cardiac conduction block was determined as the time from the start of CaCl2 infusion until the first arrhythmic event occurred. The first conduction block was defined as the first RR-interval, larger/or equal to, 3 times one RR-interval from the pre-treatment period. The first arrhythmic event occurring was either a second degree AV-block (intermittent failure of the AV conduction characterized by a P-wave without the concomitant QRS complex) or a second degree SA block (prolonged RR-interval and a QRS-complex without a preceding P-wave).
# Mice pre-treated with vehicle (0.9% saline) were tested on all days as a measure for control level in untreated animal. Injection volume was 100 μL in all experiments. The time lag to onset of arrhythmias was determined as the time from the start of CaCl2 infusion until the first event of conduction block defined as intermittent failure of the SA or AV conduction characterized by delayed P-wave activation (SA block) or by a P-wave without the concomitant QRS complex (AV block). The time lag to onset of AV block is given below in Table 2.
# [2] = system: dogs subjected to a 60-min coronary artery occlusion and 4 hr reperfusion; assay: Canine infarct size and reperfusion arrhythmia model; format: in vivo; conditions: dog, two highest doses; for Total incidence of VT: IV 10-min before reperfusion, controls 23.0±6.1; for Total PVC's: during reperfusion, control 11.1±1.6%; for Infarct size, expressed as percent of left ventricle: controls 19.0±3.5
# Procedure: Compound 2 was tested in dogs subjected to a 60-min coronary artery occlusion and 4 hr reperfusion, as described by Hennan et al. ([…]., 317, 236-43 (2006)). Compound 2 was administered IV 10-min before reperfusion as a bolus+IV infusion at doses of: 0.25 μg/kg bolus+0.19 μg/kg/hr infusion (n=6); 2.5 μg/kg bolus+1.9 μg/kg/hr infusion (n=7); 25 μg/kg bolus+19 μg/kg/hr infusion (n=6); 75 μg/kg bolus+57 μg/kg/hr infusion (n=5); vehicle control (n=7). Premature ventricular complexes (PVC's) were quantified during reperfusion. Four or more consecutive PVC's was defined as ventricular tachycardia (VT).
# [3] = first value (25 μg/kg bolus+19 μg/kg/hr infusion)
# [4] = second value (75 μg/kg bolus+57 μg/kg/hr infusion)
smiles,measurement,setting,value
"NCC(=O)N1C[C@H](NC(=O)c2ccccc2)C[C@H]1C(=O)O [Compound 2, (2S4R)1-(2-Amino-acetyl)-4-benzoylamino-pyrrolidine-2-carboxylic acid]",relative reduction of the SI inducible calcein dye-uptake response,"[1]; 100 μM compound, simulated ischemia 40 minutes, calcein 200 μM, p<0.05 vs. vehicle",32%
same,calcein dye-uptake during simulated ischemia,"[1]; C6 glioma cells overexpressing connexin43, simulated ischemia 40 minutes",dose-dependently inhibited
same,cell swelling during the 40 min stress period,"[1]; C6 glioma cells, control cells exhibited cell swelling",did not
same,Time to AV block,Male CD-1 mice,134.7 s
same,Total incidence of VT,[2]; [3],1.7±0.8 events
same,Total incidence of VT,[2]; [4],2.2±1.4 events
same,Total PVC's,[2]; [3],2.0±0.7%
same,Total PVC's,[2]; [4],1.8±0.8%
same,"Infarct size, expressed as percent of left ventricle",[2]; [3],7.9±1.5%
same,"Infarct size, expressed as percent of left ventricle",[2]; [4],7.1±0.8%
same,half-life in male rat liver microsomes,,greater than 30 minutes
